In patent US11149054B2, “Oxysterols and methods of use thereof” (Sage Therapeutics, Inc., priority 2016, dated 2021):
Like-named read-outs stand apart in the source and are kept apart here.

Assays:
[1] = target: GluN2B glutamate receptors (Homo sapiens (Human), UniProt Q05586+Q13224); assay: Whole-cell patch clamp of mammalian cells (Ionworks Barracuda), positive allosteric modulation, GluN2B; type: cell-based; conditions: for Emax: read-out: Avg Emax 2B (%)
Outline: (§1)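 Perforated-patch whole-cell recording, holding −70 mV, −40 mV during application; Cs-based internal pH 7.2, external with 5 mM CaCl2 pH 7.4. Test article pre-applied alone 5 min, then co-applied with EC20 L-glutamate plus 30 μM glycine. EC50 from Hill fit of % activation over the EC20 current.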

[2] = target: GlunN1/GluN2A glutamate receptors (Homo sapiens (Human), UniProt Q05586+Q12879); assay: Whole-cell patch clamp of mammalian cells (Ionworks Barracuda), positive allosteric modulation, GluN1/GluN2A; type: cell-based
Chain of GlunN1/GluN2A glutamate receptors (Q12879 23-1464, other chains not shown): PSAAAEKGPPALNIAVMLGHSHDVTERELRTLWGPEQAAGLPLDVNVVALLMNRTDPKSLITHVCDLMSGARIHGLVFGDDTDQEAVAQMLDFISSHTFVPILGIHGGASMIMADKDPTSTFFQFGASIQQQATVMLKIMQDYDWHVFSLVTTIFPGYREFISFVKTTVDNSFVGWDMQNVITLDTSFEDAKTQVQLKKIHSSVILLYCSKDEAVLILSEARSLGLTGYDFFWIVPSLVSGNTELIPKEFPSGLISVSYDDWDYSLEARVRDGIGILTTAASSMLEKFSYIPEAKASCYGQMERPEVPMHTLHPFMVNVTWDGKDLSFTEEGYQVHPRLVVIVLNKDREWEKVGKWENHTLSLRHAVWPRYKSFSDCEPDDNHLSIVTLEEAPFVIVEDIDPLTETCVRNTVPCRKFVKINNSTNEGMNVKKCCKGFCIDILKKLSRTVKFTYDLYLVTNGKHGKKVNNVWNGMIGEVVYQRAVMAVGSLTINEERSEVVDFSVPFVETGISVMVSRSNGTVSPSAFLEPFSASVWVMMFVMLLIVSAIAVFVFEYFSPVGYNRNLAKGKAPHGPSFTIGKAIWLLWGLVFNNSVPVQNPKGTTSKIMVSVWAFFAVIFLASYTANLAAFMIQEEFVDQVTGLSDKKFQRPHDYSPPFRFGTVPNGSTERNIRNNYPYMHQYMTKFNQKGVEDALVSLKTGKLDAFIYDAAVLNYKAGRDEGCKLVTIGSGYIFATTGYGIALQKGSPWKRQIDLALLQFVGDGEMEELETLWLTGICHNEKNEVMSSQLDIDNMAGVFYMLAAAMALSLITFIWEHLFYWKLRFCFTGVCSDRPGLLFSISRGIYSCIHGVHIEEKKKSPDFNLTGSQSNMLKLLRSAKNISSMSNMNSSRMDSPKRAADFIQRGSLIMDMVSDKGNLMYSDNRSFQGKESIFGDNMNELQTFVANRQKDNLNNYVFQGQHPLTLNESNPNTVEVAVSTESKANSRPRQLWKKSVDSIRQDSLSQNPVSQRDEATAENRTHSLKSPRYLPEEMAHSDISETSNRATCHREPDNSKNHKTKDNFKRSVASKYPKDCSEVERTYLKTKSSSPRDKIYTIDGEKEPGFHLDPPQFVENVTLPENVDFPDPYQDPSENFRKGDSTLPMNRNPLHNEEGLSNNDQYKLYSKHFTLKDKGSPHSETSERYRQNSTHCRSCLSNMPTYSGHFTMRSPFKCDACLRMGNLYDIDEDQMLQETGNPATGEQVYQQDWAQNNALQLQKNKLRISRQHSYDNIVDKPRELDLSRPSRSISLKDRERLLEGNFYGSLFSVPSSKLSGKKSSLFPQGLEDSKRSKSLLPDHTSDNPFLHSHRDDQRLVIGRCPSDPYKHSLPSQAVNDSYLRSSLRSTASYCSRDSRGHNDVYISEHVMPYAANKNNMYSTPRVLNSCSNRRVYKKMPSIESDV
Outline: as §1

[3] = % potentiation of current elicited with EC20 L-glutamate and 30 μM glycine
[4] = HEK293 cells, % potentiation of current elicited with EC20 L-glutamate and 30 μM glycine, read-out: Avg Emax 2A (%)
[5] = HEK293, read-out: Avg Emax 2A (%)
[6] = co-application with EC20 L-glutamate and 30 μM glycine, 8-point concentration-response, read-out: Avg EC50 2B
[7] = HEK293 cells, co-application with EC20 L-glutamate and 30 μM glycine, 8-point concentration-response, read-out: Avg EC50 2A

Chain of GluN2B glutamate receptors (Q13224 27-1484, other chains not shown): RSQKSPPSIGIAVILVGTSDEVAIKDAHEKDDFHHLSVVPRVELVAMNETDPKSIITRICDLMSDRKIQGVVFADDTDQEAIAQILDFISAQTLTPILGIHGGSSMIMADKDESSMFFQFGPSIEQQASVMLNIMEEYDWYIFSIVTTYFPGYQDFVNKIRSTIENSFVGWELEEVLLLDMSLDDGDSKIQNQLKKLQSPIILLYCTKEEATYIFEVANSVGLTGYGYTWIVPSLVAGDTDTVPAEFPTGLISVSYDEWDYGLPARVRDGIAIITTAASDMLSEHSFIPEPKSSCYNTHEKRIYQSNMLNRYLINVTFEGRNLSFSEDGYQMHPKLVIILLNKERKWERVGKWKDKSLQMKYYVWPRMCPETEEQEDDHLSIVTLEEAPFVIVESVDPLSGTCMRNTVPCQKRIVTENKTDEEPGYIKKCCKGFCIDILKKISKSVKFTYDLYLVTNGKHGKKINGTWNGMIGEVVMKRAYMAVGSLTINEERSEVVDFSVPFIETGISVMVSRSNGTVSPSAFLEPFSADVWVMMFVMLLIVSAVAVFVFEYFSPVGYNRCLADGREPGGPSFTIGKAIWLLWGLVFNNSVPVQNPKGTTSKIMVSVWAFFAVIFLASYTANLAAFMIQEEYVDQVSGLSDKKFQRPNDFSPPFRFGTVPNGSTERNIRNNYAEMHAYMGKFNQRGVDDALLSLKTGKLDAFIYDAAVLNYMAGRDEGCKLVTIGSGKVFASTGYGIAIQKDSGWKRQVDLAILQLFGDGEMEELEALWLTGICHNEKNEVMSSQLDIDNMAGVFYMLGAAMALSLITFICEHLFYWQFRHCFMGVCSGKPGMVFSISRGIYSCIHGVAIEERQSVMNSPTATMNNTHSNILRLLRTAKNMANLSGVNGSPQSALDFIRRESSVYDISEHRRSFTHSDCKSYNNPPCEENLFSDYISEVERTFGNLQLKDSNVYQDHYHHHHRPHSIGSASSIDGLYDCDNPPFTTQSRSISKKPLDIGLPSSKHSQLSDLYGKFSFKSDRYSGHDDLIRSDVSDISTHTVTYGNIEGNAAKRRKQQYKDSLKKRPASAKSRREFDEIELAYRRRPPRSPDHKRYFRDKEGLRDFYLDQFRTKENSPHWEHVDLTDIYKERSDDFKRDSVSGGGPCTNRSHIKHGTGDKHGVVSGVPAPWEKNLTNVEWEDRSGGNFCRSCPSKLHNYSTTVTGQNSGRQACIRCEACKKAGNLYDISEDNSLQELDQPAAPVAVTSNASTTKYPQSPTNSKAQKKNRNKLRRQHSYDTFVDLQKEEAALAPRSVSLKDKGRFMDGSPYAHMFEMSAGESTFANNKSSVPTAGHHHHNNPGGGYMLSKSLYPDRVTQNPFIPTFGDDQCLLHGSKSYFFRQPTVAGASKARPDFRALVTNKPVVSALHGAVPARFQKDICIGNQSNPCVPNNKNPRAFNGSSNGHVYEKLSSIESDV

| SMILES | EC50 [1] [nM] | Emax [1, 3] [%] | EC50 [2] [nM] | Emax [2, 4] [%] | Emax [1] [%] | Emax [2, 5] [%] | EC50 [1, 6] [nM] | EC50 [2, 7] [nM] |
| --- | --- | --- | --- | --- | --- | --- | --- | --- |
| CC[C@]1(O)CC[C@H]2C(=CC[C@@H]3[C@@H]2CC[C@]2(C)[C@@H]([C@H](C)CCC4(O)CCC(F)(F)CC4)CC[C@@H]32)C1 [Compound 8708] | 553 | 243 | 697 | 117 | – | – | – | – |
| CC[C@H](O)CC[C@@H](C)[C@H]1CC[C@H]2[C@@H]3CC[C@H]4C[C@](O)(CC)CC[C@@H]4[C@H]3CC[C@]12C [Compound 8809] | 160 | – | 533 | – | 78.2 | 73.6 | – | – |
| CC[C@]1(O)CC[C@H]2C(=CC[C@@H]3[C@@H]2CC[C@]2(C)[C@@H]([C@H](C)CCC4(O)CCC(C)(C)CC4)CC[C@@H]32)C1 [Compound 8946] | 1350 | 231 | 1600 | 263 | – | – | – | – |
| CC[C@]1(O)CC[C@H]2[C@@H](CC[C@@H]3[C@@H]2CC[C@]2(C)[C@@H]([C@H](C)CCC4(O)CCC(C)(C)CC4)CC[C@@H]32)C1 [Compound 8963] | – | 55.9 | – | 8.4 | – | – | > 10000 | > 10000 |
| C[C@H](CC[C@](C)(O)C(F)(F)F)[C@H]1CC[C@H]2[C@@H]3CC=C4C[C@@](C)(O)CC[C@@H]4[C@H]3CC[C@]12C [Compound 9062] | – | – | – | – | 52.2 | 66.5 | – | – |
| CC[C@@H](O)CC[C@@H](C)[C@H]1CC[C@H]2[C@@H]3CC[C@H]4C[C@](O)(CC)CC[C@@H]4[C@H]3CC[C@]12C [Compound 9142] | 70.4 | – | > 10000 | – | 44.8 | 41.6 | – | – |
| CC[C@]1(O)CC[C@H]2C(=CC[C@@H]3[C@@H]2CC[C@]2(C)[C@@H]([C@H](C)CCC[C@H](O)C(F)(F)F)CC[C@@H]32)C1 [Compound 9567] | – | 124 | – | 104 | – | – | 378 | 328 |
| CC[C@]1(O)CC[C@H]2[C@@H](CC[C@@H]3[C@@H]2CC[C@]2(C)[C@@H]([C@H](C)CCCC(C)(C)O)CC[C@@H]32)C1 [Compound 9670] | 220 | 213 | 366 | 154 | – | – | – | – |
| CC[C@]1(O)CC[C@H]2C(=CC[C@@H]3[C@@H]2CC[C@]2(C)[C@@H]([C@H](C)CCC[C@@H](C)O)CC[C@@H]32)C1 [Compound 9792] | – | 58.2 | – | 64.5 | – | – | – | – |
| CC[C@]1(O)CC[C@H]2C(=CC[C@@H]3[C@@H]2CC[C@]2(C)[C@@H]([C@H](C)CCCC4(O)CCC(F)(F)CC4)CC[C@@H]32)C1 [Compound 9810] | – | 91.6 | – | 87.1 | – | – | 151 | 124 |
| CC[C@]1(O)CC[C@H]2[C@@H](CC[C@@H]3[C@@H]2CC[C@]2(C)[C@@H]([C@H](C)CCCC4(O)CCC(F)(F)CC4)CC[C@@H]32)C1 [Compound 9813] | – | 99.9 | – | 68.7 | – | – | 268 | 469 |
| CC[C@]1(O)CC[C@H]2C(=CC[C@@H]3[C@@H]2CC[C@]2(C)[C@@H]([C@H](C)CCC[C@H](C)O)CC[C@@H]32)C1 [Compound 9911] | – | 326 | – | 234 | – | – | – | – |
| CC[C@]1(O)CC[C@H]2C(=CC[C@@H]3[C@@H]2CC[C@]2(C)[C@@H]([C@H](C)CCCC(O)C(C)(C)C)CC[C@@H]32)C1 (stereo partly shown) [Compound 10012] | – | 168 | – | 154 | – | – | 910 | 790 |
| CC[C@]1(O)CC[C@H]2C(=CC[C@@H]3[C@@H]2CC[C@]2(C)[C@@H]([C@H](C)CCC[C@@H](O)C(C)(C)C)CC[C@@H]32)C1 [Compound 10042] | 1880 | 113 | > 10000 | 65.9 | – | – | – | – |
| CC[C@]1(O)CC[C@H]2C(=CC[C@@H]3[C@@H]2CC[C@]2(C)[C@@H]([C@H](C)CCC[C@H](O)C(C)(C)C)CC[C@@H]32)C1 [Compound 10043] | 1070 | 211 | 897 | 146 | – | – | – | – |
| CC[C@]1(O)CC[C@H]2C(=CC[C@@H]3[C@@H]2CC[C@]2(C)[C@@H]([C@H](C)CCC[C@@H](O)C(C)C)CC[C@@H]32)C1 [Compound 10114] | – | 179 | – | 146 | – | – | – | – |
| CC[C@]1(O)CC[C@H]2C(=CC[C@@H]3[C@@H]2CC[C@]2(C)[C@@H]([C@H](C)CCC[C@H](O)C(C)C)CC[C@@H]32)C1 [Compound 10115] | – | 226 | – | 192 | – | – | 458 | 556 |
| CC[C@]1(O)CC[C@H]2C(=CC[C@@H]3[C@@H]2CC[C@]2(C)[C@@H]([C@H](C)CCCC4(O)CCOCC4)CC[C@@H]32)C1 [Compound 10216] | – | 121 | – | 79.3 | – | – | 446 | 1200 |
| CC[C@]1(O)CC[C@H]2C(=CC[C@@H]3[C@@H]2CC[C@]2(C)[C@@H]([C@H](C)CCCC4(O)CCC(C)(C)CC4)CC[C@@H]32)C1 [Compound 10317] | – | 59.9 | – | 56.7 | – | – | – | – |
| CC[C@]1(O)CC[C@H]2C(=CC[C@@H]3[C@@H]2CC[C@]2(C)[C@@H]([C@H](C)CCC[C@@H](O)C(F)(F)F)CC[C@@H]32)C1 [Compound 10456] | – | 266 | – | 231 | – | – | 209 | 240 |
| CC[C@]1(O)CC[C@H]2C(=CC[C@@H]3[C@@H]2CC[C@]2(C)[C@@H]([C@H](C)CCC[C@](C)(O)C(F)(F)F)CC[C@@H]32)C1 [Compound 10557] | – | 202 | – | 190 | – | – | 192 | 287 |
| CCC(O)CCC[C@@H](C)[C@H]1CC[C@H]2[C@@H]3CC=C4C[C@](O)(CC)CC[C@@H]4[C@H]3CC[C@]12C (stereo partly shown) [Compound 10673] | – | – | – | – | 214 | 216 | – | – |
| CC[C@]1(O)CC[C@H]2C(=CC[C@@H]3[C@@H]2CC[C@]2(C)[C@@H]([C@H](C)CCCC4(O)CC4)CC[C@@H]32)C1 [Compound 10790] | – | 246 | – | 160 | – | – | 271 | 204 |
| CC[C@@H](O)CCC[C@@H](C)[C@H]1CC[C@H]2[C@@H]3CC=C4C[C@](O)(CC)CC[C@@H]4[C@H]3CC[C@]12C [Compound 10841] | > 10000 | – | > 10000 | – | 30.1 | 15.6 | – | – |
| CC[C@H](O)CCC[C@@H](C)[C@H]1CC[C@H]2[C@@H]3CC=C4C[C@](O)(CC)CC[C@@H]4[C@H]3CC[C@]12C [Compound 10949] | – | – | – | – | 147 | 97.4 | – | – |
| C[C@H](CCCC1(O)CCC(F)(F)CC1)[C@H]1CC[C@H]2[C@@H]3CC[C@H]4C[C@](O)(C(F)(F)F)CC[C@]4(C)[C@H]3CC[C@]12C [Compound 11786] | – | 151 | – | 152 | – | – | 1010 | 584 |
| CC(C)[C@H](O)CCC[C@@H](C)[C@H]1CC[C@H]2[C@@H]3CC[C@H]4C[C@](O)(C(F)(F)F)CC[C@]4(C)[C@H]3CC[C@]12C [Compound 11828] | 76.9 | – | 147 | – | 114 | 142 | – | – |
